Reference: the supplement of paper PMC11451515

Tested on: SEM cells
Assay: cell viability relative to DMSO control; higher = less cytotoxic
Settings: 48 h
Summary of the method: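 Viability is a per-plate percentage relative to DMSO wells, with cell-free wells as background. CellTiter-Glo One luminescence was read after 48 h at 37°C on 1536-well plates (5 μl) of NOMO1 or SEM (500 cells/well) or P12-Ichikawa (1000 cells/well) leukemia cells. The cells had been adapted for at least four passages in each medium and pin-dosed with library compounds in DMSO from 47 μM to 0.79 nM in 11 threefold steps.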

[1] = HPLM + 10% dialyzed FBS, 0.000781 µM
[2] = HPLM + 10% dialyzed FBS, 0.00234 µM
[3] = HPLM + 10% dialyzed FBS, 0.00702 µM
[4] = HPLM + 10% dialyzed FBS, 0.0211 µM
[5] = HPLM + 10% dialyzed FBS, 0.0632 µM
[6] = HPLM + 10% dialyzed FBS, 0.19 µM
[7] = HPLM + 10% dialyzed FBS, 0.569 µM
[8] = HPLM + 10% dialyzed FBS, 1.71 µM
[9] = HPLM + 10% dialyzed FBS, 5.12 µM
[10] = HPLM + 10% dialyzed FBS, 15.4 µM
[11] = HPLM + 10% dialyzed FBS, 46.1 µM
[12] = RPMI 5 mM glucose + 10% FBS, 0.000781 µM
[13] = RPMI 5 mM glucose + 10% FBS, 0.00234 µM
[14] = RPMI 5 mM glucose + 10% FBS, 0.00702 µM
[15] = RPMI 5 mM glucose + 10% FBS, 0.0211 µM
[16] = RPMI 5 mM glucose + 10% FBS, 0.0632 µM
[17] = RPMI 5 mM glucose + 10% FBS, 0.19 µM
[18] = RPMI 5 mM glucose + 10% FBS, 0.569 µM
[19] = RPMI 5 mM glucose + 10% FBS, 1.71 µM
[20] = RPMI 5 mM glucose + 10% FBS, 5.12 µM
[21] = RPMI 5 mM glucose + 10% FBS, 15.4 µM
[22] = RPMI 5 mM glucose + 10% FBS, 46.1 µM
[23] = RPMI 5 mM glucose + 10% dialyzed FBS, 0.000781 µM
[24] = RPMI 5 mM glucose + 10% dialyzed FBS, 0.00234 µM
[25] = RPMI 5 mM glucose + 10% dialyzed FBS, 0.00702 µM
[26] = RPMI 5 mM glucose + 10% dialyzed FBS, 0.0211 µM
[27] = RPMI 5 mM glucose + 10% dialyzed FBS, 0.0632 µM
[28] = RPMI 5 mM glucose + 10% dialyzed FBS, 0.19 µM
[29] = RPMI 5 mM glucose + 10% dialyzed FBS, 0.569 µM
[30] = RPMI 5 mM glucose + 10% dialyzed FBS, 1.71 µM
[31] = RPMI 5 mM glucose + 10% dialyzed FBS, 5.12 µM
[32] = RPMI 5 mM glucose + 10% dialyzed FBS, 15.4 µM
[33] = RPMI 5 mM glucose + 10% dialyzed FBS, 46.1 µM

Compound | cell viability [1] | cell viability [2] | cell viability [3] | cell viability [4] | cell viability [5] | cell viability [6] | cell viability [7] | cell viability [8] | cell viability [9] | cell viability [10] | cell viability [11] | cell viability [12] | cell viability [13] | cell viability [14] | cell viability [15] | cell viability [16] | cell viability [17] | cell viability [18] | cell viability [19] | cell viability [20] | cell viability [21] | cell viability [22] | cell viability [23] | cell viability [24] | cell viability [25] | cell viability [26] | cell viability [27] | cell viability [28] | cell viability [29] | cell viability [30] | cell viability [31] | cell viability [32] | cell viability [33]
C[C@]12CC[C@H]3[C@@H](C\C=C/4C[C@@H](O)CC[C@]34C)[C@@H]1CCC2=O | 103% | 98.2% | 91.1% | 102% | 98.4% | 94.6% | 99.8% | 98.2% | 83.4% | 107% | 103% | 108% | 114% | 121% | 135% | 136% | 111% | 135% | 115% | 93.1% | 116% | 97.5% | 112% | 97.1% | 118% | 128% | 127% | 136% | 130% | 121% | 94.3% | 115% | 112%
CC(O)(C#Cc1ccc2c(c1)N(c1nc(N)ncc1Cl)CC2)c1nccs1 (stereo unspecified) | 97.3% | 110% | 113% | 100% | 125% | 107% | 109% | 120% | 111% | 111% | 72.4% | 88.2% | 87.3% | 107% | 62.8% | 92.9% | 97.7% | 102% | 101% | 102% | 84.5% | 43.5% | 117% | 120% | 119% | 82.5% | 107% | 103% | 117% | 123% | 114% | 109% | 59.2%
COC[C@H](c1ccc(C(F)(F)F)cc1)N1CCN(C2(C)CCN(C(=O)c3c(C)ncnc3C)CC2)C[C@H]1C.O=C(O)/C=C\C(=O)O | 80.5% | 98.2% | 105% | 93.5% | 90% | 104% | 90.2% | 92% | 99.8% | 95.4% | 61.8% | 66% | 94.5% | 82.9% | 97.5% | 85.6% | 87.6% | 84.5% | 99.6% | 92.4% | 83.8% | 59.6% | 85.2% | 93.2% | 97.1% | 108% | 88.6% | 97.3% | 103% | 104% | 84% | 98% | 65.8%
CN1C(=O)C[C@H](C(=O)N[C@@H](Cc2cnc[nH]2)C(=O)N2CCC[C@H]2C(N)=O)NC1=O | 117% | 108% | 142% | 121% | 111% | 127% | 122% | 120% | 116% | 97.4% | 74.3% | – | – | – | – | – | – | – | – | – | – | – | 104% | 118% | 120% | 122% | 105% | 112% | 104% | 103% | 104% | 98.1% | 50.1%
CCC(=C/[C@H](C)C/C=C/C(C)=C/[C@@H](C)C(=O)[C@@H](C)[C@H](O)[C@@H](C)C/C(C)=C/C(=O)O)/C=C/[C@@H]1OC(=O)C=C[C@@H]1C | 59.9% | 88.8% | 77.7% | 79.9% | 89.2% | 75.7% | 62.4% | 20.6% | 5.63% | 5.09% | 7.74% | 83% | 96.4% | 93.2% | 95.3% | 106% | 70.4% | 45.5% | 13% | 6.23% | 5.5% | 10.9% | 84% | 86% | 95.4% | 91.1% | 82.9% | 77.7% | 52% | 18.8% | 7.36% | 6.69% | 8.55%
CN(C)CCOc1ccc(-c2nc(-c3ccncc3)c(-c3ccc4c(c3)CC/C4=N\O)[nH]2)cc1 | 108% | 111% | 106% | 106% | 110% | 101% | 114% | 117% | 112% | 109% | 24.8% | 107% | 104% | 106% | 124% | 123% | 113% | 126% | 114% | 122% | 109% | 19.6% | 115% | 109% | 111% | 113% | 113% | 119% | 125% | 134% | 119% | 115% | 68.5%
CC[C@@]1(O)C(=O)OC\C2=C1\C=C\3N(CC4=C3N=C5C=CC=CC5=C4)C2=O | 126% | 116% | 110% | 103% | 40.3% | 14.9% | 7.26% | 4.92% | 4.54% | 4.65% | 5.06% | 105% | 86.8% | 87.2% | 55.3% | 15.3% | 11.4% | 6.29% | 3.5% | 3.72% | 3.35% | 4.07% | 127% | 119% | 105% | 77.2% | 28.1% | 13.4% | 7.26% | 4.41% | 4.16% | 4.15% | 4.83%
O=C1Nc2ccc(I)cc2/C1=C/c1cc(Br)c(O)c(Br)c1 | 98.4% | 107% | 103% | 104% | 101% | 111% | 107% | 96.5% | 105% | 94.6% | 76.8% | 113% | 113% | 105% | 112% | 102% | 115% | 118% | 110% | 108% | 88.4% | 67.5% | 115% | 109% | 115% | 111% | 121% | 106% | 121% | 110% | 104% | 89% | 62.5%
NCCCCNCCCN | 74.8% | 80.2% | 75.4% | 89.7% | 97.8% | 99.5% | 87.6% | 99.2% | 101% | 19.7% | 3.89% | 107% | 73.5% | 97% | 93.9% | 108% | 110% | 99.1% | 106% | 106% | 43.5% | 4.26% | 88% | 83.7% | 94.2% | 75.6% | 106% | 103% | 93.7% | 99.4% | 91.9% | 21.4% | 4.65%
Nc1ncnc2ccccc12 | 83.3% | 87.9% | 93.9% | 18.9% | 97% | 97.1% | 109% | 91.5% | 90.5% | 93.4% | 99.5% | 97.9% | 98.7% | 118% | 13.2% | 123% | 102% | 96.9% | 123% | 99.1% | 122% | 107% | 73.9% | 76.3% | 89.6% | 16.7% | 94.4% | 86.2% | 101% | 98.6% | 91.4% | 97.6% | 99.6%
Cc1cc(Nc2cc(CN3CCOCC3)c3nc(C)c(Cc4ccc(Cl)cc4F)n3n2)[nH]n1 | 119% | 116% | 113% | 108% | 116% | 105% | 74.6% | 60.5% | 51.4% | 22.9% | 21.4% | 113% | 107% | 114% | 109% | 108% | 83.2% | 61.6% | 58.8% | 49.4% | 14.8% | 6.83% | 109% | 129% | 122% | 92.4% | 106% | 95.2% | 66.1% | 52.7% | 40.9% | 11.6% | 9.11%
C/C(O)=C(\C#N)C(=O)Nc1cc(Br)ccc1Br | 108% | 102% | 112% | 107% | 112% | 110% | 107% | 109% | 108% | 32.2% | 75.4% | 122% | 104% | 104% | 106% | 119% | 112% | 99% | 113% | 106% | 32.8% | 84.9% | 112% | 110% | 108% | 118% | 107% | 108% | 105% | 111% | 99% | 32% | 70.5%
CC/1=C(/C(CC(=O)N1)C2=CC=C(C=C2)C(F)(F)F)C(=O)NC3=C(F)C=C4[NH]N=CC4=C3 (stereo unspecified) | 81.9% | 94.4% | 92.3% | 104% | 91.8% | 89.4% | 95.9% | 89.3% | 114% | 29.9% | 26.5% | 102% | 101% | 94.2% | 94.7% | 84.3% | 92.8% | 108% | 92% | 108% | 31.9% | 31.8% | 97.9% | 80.9% | 102% | 84% | 96.8% | 97.1% | 100% | 96.7% | 109% | 28.2% | 32%
C=CC(=O)Nc1cccc(Nc2nc(NC3CCC(N(C)C)CC3)nc3c2ncn3C(C)C)c1 (stereo unspecified) | 107% | 106% | 112% | 112% | 105% | 95.9% | 81.9% | 40.6% | 9.48% | 4.66% | 4.5% | 116% | 107% | 101% | 113% | 117% | 106% | 86.9% | 70.1% | 10.8% | 4.33% | 3.98% | 105% | 111% | 109% | 110% | 115% | 107% | 82.5% | 40.9% | 9.22% | 3.79% | 3.4%
CCOC(=O)c1cncn1[C@H](C)c1ccccc1 | 101% | 92.8% | 92.6% | 89.6% | 108% | 96.9% | 23.1% | 106% | 113% | 96.2% | 89.8% | 111% | 110% | 97.4% | 109% | 112% | 114% | 21.6% | 107% | 117% | 108% | 111% | 118% | 116% | 93.8% | 109% | 128% | 102% | 26.4% | 115% | 98.9% | 106% | 97.7%
COC1=C2C[C@@H](C)C[C@H](OC)[C@H](O)[C@@H](C)/C=C(\C)[C@H](OC(N)=O)[C@@H](OC)/C=C/C=C(\C)C(=O)NC(=CC1=O)C2=O | 122% | 115% | 125% | 127% | 117% | 123% | 101% | 115% | 100% | 6.39% | 5.09% | – | – | – | – | – | – | – | – | – | – | – | 110% | 105% | 102% | 108% | 97.2% | 95.8% | 99.7% | 114% | 72.2% | 5.54% | 4.75%
